In PubChem BioAssay AID328 (DTP/NCI, 2004):
Where “and” joins values, the source holds several entries; their conditions need not be identical. Equal values may be shown once. Toxic doses and inconclusive results are not listed.

System: BDF1 mice, P388 leukemia ip, median survival T/C
Assay: NCI In Vivo Anticancer Drug Screen. Data for tumor model P388 Leukemia (intraperitoneal) in B6D2F1 (BDF1) mice
Details: endpoint: median survival time, higher = longer survival
Method in brief: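 Vehicle-dosed animals serve as the reference; survival of compound-dosed, tumour-implanted mice is divided by it.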

[1] = dose: 100.0 mg/kg/injection, schedule: Q04DX003 (ip), vehicle: saline with Tween-80
[2] = dose: 200.0 mg/kg/injection, schedule: Q04DX003 (ip), vehicle: saline with Tween-80
[3] = dose: 400.0 mg/kg/injection, schedule: Q04DX003 (ip), vehicle: saline with Tween-80
[4] = dose: 100.0 mg/kg/injection, schedule: Q01DX009 (ip), vehicle: saline with Tween-80
[5] = dose: 200.0 mg/kg/injection, schedule: Q01DX009 (ip), vehicle: saline with Tween-80
[6] = dose: 400.0 mg/kg/injection, schedule: Q01DX009 (ip), vehicle: saline with Tween-80
[7] = dose: 100.0 mg/kg/injection, schedule: Q04DX003 (ip), vehicle: Klucel (hydroxypropylcellulose) (HPC)
[8] = dose: 200.0 mg/kg/injection, schedule: Q04DX003 (ip), vehicle: Klucel (hydroxypropylcellulose) (HPC)
[9] = dose: 400.0 mg/kg/injection, schedule: Q04DX003 (ip), vehicle: Klucel (hydroxypropylcellulose) (HPC)
[10] = dose: 100.0 mg/kg/injection, schedule: Q01DX009 (ip), vehicle: Klucel (hydroxypropylcellulose) (HPC)
[11] = dose: 200.0 mg/kg/injection, schedule: Q01DX009 (ip), vehicle: Klucel (hydroxypropylcellulose) (HPC)
[12] = dose: 400.0 mg/kg/injection, schedule: Q01DX009 (ip), vehicle: Klucel (hydroxypropylcellulose) (HPC)
[13] = dose: 12.0 mg/kg/injection, schedule: Q01DX009 (ip), vehicle: Klucel (hydroxypropylcellulose) (HPC)
[14] = dose: 50.0 mg/kg/injection, schedule: Q01DX009 (ip), vehicle: Klucel (hydroxypropylcellulose) (HPC)
[15] = dose: 6.25 mg/kg/injection, schedule: Q01DX009 (ip), vehicle: saline
[16] = dose: 12.5 mg/kg/injection, schedule: Q01DX009 (ip), vehicle: saline
[17] = dose: 25.0 mg/kg/injection, schedule: Q01DX009 (ip), vehicle: saline
[18] = dose: 25.0 mg/kg/injection, schedule: Q04DX003 (ip), vehicle: saline
[19] = dose: 25.0 mg/kg/injection, schedule: Q01DX009 (ip), vehicle: water
[20] = dose: 50.0 mg/kg/injection, schedule: Q01DX009 (ip), vehicle: water
[21] = dose: 50.0 mg/kg/injection, schedule: Q04DX003 (ip), vehicle: water
[22] = dose: 100.0 mg/kg/injection, schedule: Q01DX009 (ip), vehicle: water
[23] = dose: 200.0 mg/kg/injection, schedule: Q04DX002 (ip), vehicle: saline with Tween-80
[24] = dose: 50.0 mg/kg/injection, schedule: Q01DX009 (ip), vehicle: saline with Tween-80
[25] = dose: 50.0 mg/kg/injection, schedule: Q01DX009 (ip), vehicle: saline
[26] = dose: 50.0 mg/kg/injection, schedule: Q04DX003 (ip), vehicle: saline
[27] = dose: 100.0 mg/kg/injection, schedule: Q01DX009 (ip), vehicle: saline
[28] = dose: 100.0 mg/kg/injection, schedule: Q04DX003 (ip), vehicle: saline

COC(=O)Cc1[nH]ccc1C(=O)OC
T/C (dose: 100.0 mg/kg/injection, schedule: Q01DX001 (ip), vehicle: saline with Tween-80): 103 % of control
T/C (dose: 200.0 mg/kg/injection, schedule: Q01DX001 (ip), vehicle: saline with Tween-80): 109 % of control
T/C (dose: 400.0 mg/kg/injection, schedule: Q01DX001 (ip), vehicle: saline with Tween-80): 120 % of control

NC(=O)C(CC(=O)OCc1ccccc1)NC(=O)OCc1ccccc1 (configuration not stated)
T/C [1]: 100 % of control
T/C [2]: 95 % of control
T/C [3]: 104 % of control

Clc1ccc(-c2nc3ccccc3cc2N2CCCCC2)cc1
T/C (dose: 100.0 mg/kg/injection, schedule: Q01DX001 (ip), vehicle: other): 110 % of control
T/C (dose: 200.0 mg/kg/injection, schedule: Q01DX001 (ip), vehicle: other): 105 % of control
T/C (dose: 400.0 mg/kg/injection, schedule: Q01DX001 (ip), vehicle: other): 105 % of control

CCCCCn1cnc2c(=S)nc[nH]c21
T/C [4]: 90 % of control
T/C [5]: 104 % of control
T/C [6]: 90 % of control

BrC1C(Br)C(Br)C2OC2C1Br (configuration not stated)
T/C [7]: 100 % of control
T/C [8]: 105 % of control
T/C [9]: 100 % of control

CC(C)(C)C(=O)CC(=O)C(F)(F)C(F)(F)C(F)(F)F.CC(C)(C)C(=O)CC(=O)C(F)(F)C(F)(F)C(F)(F)F.CC(C)(C)C(=O)CC(=O)C(F)(F)C(F)(F)C(F)(F)F.[Fe]
T/C [10]: 97 % of control
T/C [11]: 114 % of control
T/C [12]: 97 % of control

[Cl][Pt+2]([Cl])([Cl])[Cl].[Na+].[S-]c1ncnc2nc[nH]c12.[S-]c1ncnc2nc[nH]c12
T/C [4]: 120 % of control
T/C [1]: 100 % of control
T/C [2]: 100 % of control
T/C (dose: 300.0 mg/kg/injection, schedule: Q01DX009 (ip), vehicle: saline with Tween-80): 113 % of control
T/C [6]: 112 % of control
T/C [3]: 122 % of control

CC(=O)[C@H]1CC[C@H]2[C@@H]3C[C@H](F)C4=CC(=O)CC[C@]4(C)[C@@]3(F)[C@@H](O)C[C@]12C
T/C [13]: 122 % of control
T/C (dose: 12.5 mg/kg/injection, schedule: Q01DX009 (ip), vehicle: Klucel (hydroxypropylcellulose) (HPC)): 115 % of control
T/C (dose: 25.0 mg/kg/injection, schedule: Q01DX009 (ip), vehicle: Klucel (hydroxypropylcellulose) (HPC)): 100 % of control and 103 % of control
T/C [14]: 90 % of control and 100 % of control
T/C [7]: 95 % of control and 113 % of control
T/C [8]: 95 % of control and 113 % of control
T/C [9]: 95 % of control and 104 % of control and 109 % of control

CCOC(=O)c1c[nH]n2c(=S)ncnc12
T/C [4]: 100 % of control and 109 % of control
T/C [5]: 110 % of control
T/C [6]: 104 % of control

CC(=O)CC(C)=O.CC(=O)CC(C)=O.[Fe]
T/C [15]: 113 % of control
T/C (dose: 6.25 mg/kg/injection, schedule: Q04DX003 (ip), vehicle: saline): 113 % of control
T/C [16]: 104 % of control
T/C (dose: 12.5 mg/kg/injection, schedule: Q04DX003 (ip), vehicle: saline): 113 % of control
T/C [17]: 113 % of control
T/C [18]: 113 % of control
T/C (dose: 35.0 mg/kg/injection, schedule: Q04DX003 (ip), vehicle: saline): 113 % of control

COc1ccc(CNCCNCc2ccc(OC)cc2)cc1
T/C (dose: 12.5 mg/kg/injection, schedule: Q01DX009 (ip), vehicle: water): 98 % of control
T/C [19]: 100 % of control
T/C (dose: 25.0 mg/kg/injection, schedule: Q04DX003 (ip), vehicle: water): 95 % of control
T/C [20]: 115 % of control
T/C [21]: 95 % of control
T/C [22]: 92 % of control and 107 % of control
T/C (dose: 100.0 mg/kg/injection, schedule: Q04DX003 (ip), vehicle: water): 100 % of control and 109 % of control

Cc1ccc(C)c(Cc2c(C=O)[nH]c(=S)[nH]c2=O)c1
T/C [1]: 100 % of control
T/C [2]: 109 % of control
T/C [3]: 122 % of control

CC(=O)c1ccccc1I
T/C [10]: 100 % of control
T/C [7]: 104 % of control
T/C [11]: 95 % of control
T/C [8]: 100 % of control
T/C [12]: 100 % of control
T/C [9]: 95 % of control

Cc1c(CNc2ccc(C(=O)NC(CC(=O)O)C(=O)O)cc2)ccc2nc(N)nc(N)c12 (configuration not stated)
T/C [15]: 100 % of control
T/C [16]: 90 % of control
T/C (dose: 16.5 mg/kg/injection, schedule: Q04DX003 (ip), vehicle: saline with Tween-80): 254 % of control
T/C (dose: 25.0 mg/kg/injection, schedule: Q04DX003 (ip), vehicle: saline with Tween-80): 272 % of control
T/C (dose: 37.5 mg/kg/injection, schedule: Q04DX003 (ip), vehicle: saline with Tween-80): 104 % of control

COC(=O)c1cccc(OC)c1C(=O)OC
T/C (dose: 100.0 mg/kg/injection, schedule: Q04DX002 (ip), vehicle: saline with Tween-80): 104 % of control
T/C [23]: 102 % of control

Nc1cc(/C=C/c2ccc([N+](=O)[O-])cc2)nc2ccccc12
T/C (dose: 25.0 mg/kg/injection, schedule: Q04DX002 (ip), vehicle: saline with Tween-80): 101 % of control
T/C [24]: 88 % of control
T/C (dose: 50.0 mg/kg/injection, schedule: Q04DX002 (ip), vehicle: saline with Tween-80): 117 % of control
T/C [4]: 94 % of control
T/C [5]: 94 % of control
T/C [23]: 88 % of control

O=C(NNC(=O)c1ccc([N+](=O)[O-])cc1)c1ccccc1
T/C (dose: 3.0 mg/kg/injection, schedule: Q01DX009 (ip), vehicle: Klucel (hydroxypropylcellulose) (HPC)): 95 % of control
T/C (dose: 6.0 mg/kg/injection, schedule: Q01DX009 (ip), vehicle: Klucel (hydroxypropylcellulose) (HPC)): 104 % of control
T/C [13]: 100 % of control
T/C [14]: 92 % of control
T/C [7]: 104 % of control
T/C [8]: 87 % of control
T/C [9]: 108 % of control

CNC(=O)c1nc(C)c(C)[nH]c1=O
T/C [19]: 97 % of control
T/C [20]: 90 % of control
T/C [21]: 103 % of control
T/C [22]: 99 % of control
T/C (dose: 200.0 mg/kg/injection, schedule: Q01DX009 (ip), vehicle: water): 90 % of control
T/C (dose: 400.0 mg/kg/injection, schedule: Q04DX003 (ip), vehicle: water): 100 % of control

C[Si](C)(C)O/C=C1/CCOC1=O
T/C [24]: 102 % of control
T/C [4]: 110 % of control
T/C [5]: 119 % of control
T/C [6]: 117 % of control

O=C1CCCC1C(=O)Nc1cccc2cccnc12 (configuration not stated)
T/C [1]: 117 % of control
T/C [2]: 95 % of control
T/C [3]: 100 % of control

Cc1nn(C)c(N)c1C#N
T/C [16]: 87 % of control
T/C [17]: 94 % of control
T/C [18]: 103 % of control
T/C [25]: 87 % of control
T/C [26]: 97 % of control
T/C [27]: 101 % of control
T/C [28]: 92 % of control
T/C (dose: 200.0 mg/kg/injection, schedule: Q01DX009 (ip), vehicle: saline): 100 % of control
T/C (dose: 200.0 mg/kg/injection, schedule: Q04DX003 (ip), vehicle: saline): 97 % of control
T/C (dose: 400.0 mg/kg/injection, schedule: Q01DX009 (ip), vehicle: saline): 92 % of control
T/C (dose: 400.0 mg/kg/injection, schedule: Q04DX003 (ip), vehicle: saline): 97 % of control

CCN(CC)CCCC(C)Nc1ncnc(N)c1[N+](=O)[O-] (configuration not stated)
T/C [17]: 120 % of control
T/C [18]: 90 % of control
T/C [25]: 120 % of control
T/C [26]: 95 % of control
T/C [27]: 90 % of control
T/C [28]: 100 % of control
